Assays:
[1] = system: luciferase-transfected PANC-1 cells; experiment: Histological study of harvested tumors (H&E, Ki67); format: in vivo, NOD-SCID-Gamma (NSG) mice
Method: (§1) 6-8 weeks old male and female NOD-SCID-Gamma (NSG) mice were obtained from NCI and housed in the institutional animal facilities. About 1×10^6 luciferase-transfected PANC-1 cells suspended in 50 μL PBS were injected orthotopically into the pancreas of the mice. Tumors were allowed to grow for three weeks. Then, mice were randomized into four groups of ten (5 male mice and 5 female mice in each group), and 50 μg/mouse Gem, GNP-Gem with an equivalent Gem amount, or unconjugated GNPs were injected intraperitoneally three times a week for three weeks. Tumor growth was measured weekly using an IVIS bio-imager after injecting Luciferin. After three weeks of treatment, mice were sacrificed, and tumors were harvested, measured with slide calipers, and weighed. Tumor volumes were calculated using the formula: V=0.5 X a X b^2, where ‘a’ is the longest tumor axis, and ‘b’ is the shortest tumor axis.
Tumors were harvested and fixed in neutral buffered 10% formalin at room temperature for 24 hours prior to embedding in paraffin and sectioning. Sections were deparaffinized and then subjected Hematoxylin and Eosin (H&E) and Ki67 staining according to manufacturer's instructions (DAB 150, Millipore). Stable diaminobenzidine was used as a chromogen substrate, and the sections were counterstained with a hematoxylin solution. Slides were digitized with Aperio AT2 slide scanner (Leica) and analyzed with imagescope software (Leica).

[2] = system: AsPC-1 cells; experiment: In vitro cell viability assay (MTS); format: cell-based; settings: AsPC-1, 1 hour treatment, MTS after 72 hours
Method: About 5×10^3 cells were seeded in 96-well plates and treated with increasing doses of GNP, Gem, and GNP-Gem diluted in respective media. After a 1-hour incubation, cells were washed thrice with PBS, overlaid with 100 μL media containing serum and antibiotics, and incubated for another 72 hours. At the end of the incubation, cell viability was measured using Celltiter 96 Aqueous One Solution Cell Proliferation Assay (Promega) as per the manufacturer's protocol. Briefly, the media containing the treatments were aspirated from the plate and washed with PBS. Then, 100 μL media containing 20 μL One Solution reagent was added to each well. The plate was incubated at 37° C. for 30 minutes, and absorbance at 492 nm was measured using Spectramax i3x. Percentage viability was calculated as follows: Viability (%)=100* (ATreated−ABlank)/(AUntreated−ABlank).
To this end, two commercially available pancreatic cancer cell lines were selected (AsPC-1 and PANC-1, obtained from ATCC). The cells were treated with increasing doses of GNP, Gem, and GNP-Gem for 1 hour. After 1 hour, cells were washed three times with PBS to remove the treatments completely in order to reduce any non-specific effect, and fresh media was added to the cells. The cell viability measurement was performed by MTS assay after 72 hours (FIG. 4A-B).

[3] = system: luciferase-transfected PANC-1 cells; experiment: In vivo tumor growth inhibition, orthotopic PANC-1 xenograft; set-up: species or system NOD-SCID-Gamma (NSG) mice; settings: after three weeks of treatment
Method: as §1
About, 1×10^6 luciferase transfected PANC-1 cells were orthotopically implanted in the pancreas of 6-8 weeks old NSG mice. After three weeks, mice were imaged noninvasively using the Xenogen instrument to confirm tumor growth and then randomized into four groups before the initiation of treatment. Both male and female mice were included in the experiment to delineate any differential sex-dependent therapeutic effect of GNP-Gem. The experiment was terminated after three weeks of treatment. […] FIG. 5C depicts the tumor growth curve as measured by luciferase bioluminescence for female and male mice separately or in combination.

In the case of Nc1ccn([C@@H]2O[C@H](CO)[C@@H](O)C2(F)F)c(=O)n1 [Gem, Gemcitabine], the “percentage of Ki67-positive nuclei, mean” value ([1]; female and male combined) is reported as 31.4%, the “percentage of Ki67-positive nuclei, median” value (“percentage … median” below) ([1]; female and male combined) is reported as 32.07% and the “percentage of Ki67-positive nuclei, mean” value ([1]; female mice) is reported as 31.3%. For the same compound, the “percentage … median” value ([1]; female mice) was 32.3%, the “percentage of Ki67-positive nuclei, mean” value ([1]; male mice) was 31.5% and the “percentage … median” value ([1]; male mice) was 31.4%. For the same compound, the “effect on cell viability” value [2] was “dose dependent effect”, the “tumor volume, mean” value ([3]; female and male combined) was 251 mm^3 and the “tumor volume, median” value ([3]; female and male combined) was 250 mm^3. The “tumor weight, mean” value ([3]; female and male combined) was 310.86 mg, the “tumor weight, median” value ([3]; female and male combined) was 280.35 mg and the “tumor volume, mean” value ([3]; female mice) was 254.8 mm^3. The “tumor volume, median” value ([3]; female mice) was 254.6 mm^3, the “tumor weight, mean” value ([3]; female mice) was 295.9 mg and the “tumor weight, median” value ([3]; female mice) was 272.4 mg. For the same compound, the “tumor volume, mean” value ([3]; male mice) was 247.17 mm^3, the “tumor volume, median” value ([3]; male mice) was 245.3 mm^3 and the “tumor weight, mean” value ([3]; male mice) was 325.8 mg. For the same compound, the “tumor weight, median” value ([3]; male mice) was 288.3 mg.

— patent publication US10543231B2, “Methods and materials for treating cancer” (Mayo Foundation for Medical Education and Research, priority 2017, dated 2020)
